The target in one test is T1, recombinant CK2A1 (Homo sapiens, UniProt P68400).
T1 construct: purchased Invitrogen
As to the kind of experiment: CK2 kinase assay (CK2A1), [γ-33P]ATP filter-binding. The following applies: recombinant CK2A1 10 nM, ATP 25 μM, 10 μM peptide substrate, 30° C. 1 h. The format is biochemical. The protocol:
(§1) The effectiveness of compounds of the present invention as inhibitors of protein kinases can be readily tested by assays known to those skilled in the art. For example, in vitro protein kinase assays may be conducted with a relevant purified protein kinase and an appropriate synthetic substrate to determine the inhibitory activities of the compounds. […] Reaction mixtures were incubated at 30° C. for 1 h, and reaction products were captured by binding to phosphocellulose (P81) filter plates. Incorporation of radioactive phosphate into the peptide substrate was determined by liquid scintillation counting. The potency of compounds in inhibiting CK2 is expressed as IC50, defined as the concentrations of compounds required to inhibit the enzymatic activity by 50%.

The next test relates to HCT116. As to the kind of experiment: Cell proliferation inhibition assay (MTT, CellTiter96). It is filed as cell-based. The following applies: Homo sapiens, HCT-116; HCT116 cells, 72 h with compound, MTT readout. The protocol:
B. Cell Proliferation Inhibition Assay
Compounds were evaluated for their ability to inhibit cell proliferation, using an assay that measures mitochondrial metabolic activity, that is directly correlated with cell numbers. Cells were plated at 2000 cells/well in 96-well plates and were cultured for 24 h in RPMI-1640 supplemented with 2% fetal bovine serum, before test compounds were added. Compounds were diluted in culture medium such that the final concentration of dimethyl sulfoxide never exceeded 1%. Following the addition of compounds, the cells were cultured for an additional 72 h before cell viability was determined by measuring the conversion of 3-(4,5-dimethylthiazol-2-yl)-2,5-diphenyltetrazolium bromide (MTT) dye using the CellTiter96 kit (Promega).

The target of a further test is T2, recombinant CK2A2 (Homo sapiens, UniProt P19784).
T2 construct: purchased Upstate Biotechnology
T2 sequence (P19784 whole entry): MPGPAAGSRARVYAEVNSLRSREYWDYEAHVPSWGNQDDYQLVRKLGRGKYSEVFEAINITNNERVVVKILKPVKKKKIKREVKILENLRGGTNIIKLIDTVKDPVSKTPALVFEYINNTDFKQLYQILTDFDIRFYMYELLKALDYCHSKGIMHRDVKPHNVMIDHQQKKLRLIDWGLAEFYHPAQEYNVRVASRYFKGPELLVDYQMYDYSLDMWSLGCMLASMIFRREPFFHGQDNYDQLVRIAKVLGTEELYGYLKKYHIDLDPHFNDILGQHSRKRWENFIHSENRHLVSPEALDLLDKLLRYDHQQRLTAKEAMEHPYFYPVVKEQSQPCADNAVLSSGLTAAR
As to the kind of experiment: CK2 kinase assay (CK2A2), [γ-33P]ATP filter-binding. The following applies: recombinant CK2A2 5 nM, ATP 5 μM, 10 μM peptide substrate, 30° C. 1 h. The format is biochemical. As for the experimental part:
as §1

Molecules are shown by their SMILES.

T1 sequence (P68400 whole entry): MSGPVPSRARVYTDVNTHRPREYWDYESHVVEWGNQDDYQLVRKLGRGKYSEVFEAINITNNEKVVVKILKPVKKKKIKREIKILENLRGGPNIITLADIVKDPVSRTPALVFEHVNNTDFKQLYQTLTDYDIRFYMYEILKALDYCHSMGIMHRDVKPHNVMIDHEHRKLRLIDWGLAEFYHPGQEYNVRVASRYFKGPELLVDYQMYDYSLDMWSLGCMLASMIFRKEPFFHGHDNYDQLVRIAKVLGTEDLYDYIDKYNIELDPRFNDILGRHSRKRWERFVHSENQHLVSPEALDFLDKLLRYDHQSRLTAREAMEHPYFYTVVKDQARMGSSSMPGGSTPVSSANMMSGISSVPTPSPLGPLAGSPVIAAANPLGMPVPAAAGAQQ

In the case of `O=C(Nc1ccnc(F)c1)c1cnc2c(NC3CC3)cc(N[C@H]3CC[C@H](NC(=O)C4CCCNC4)CC3)nn12` (stereo partly drawn) [Example 144, 8-(cyclopropylamino)-N-(2-fluoro-4-pyridinyl)-6-((trans-4-((3-piperidinylcarbonyl)amino)cyclohexyl)amino) imidazo[1,2-b]pyridazine-3-carboxamide], the IC50 at recombinant CK2A1 is 183 nM; in the test on HCT116 it was over 2500 nM; on recombinant CK2A2 it was 70 nM.

In the case of `Cc1cc(Nc2cc(N[C@H]3CC[C@H](NC(=O)CC#N)CC3)nn3c(C(=O)Nc4ccnc(Cl)c4)cnc23)no1` [Example 560, N-(2-chloro-4-pyridinyl)-6-((trans-4-((cyanoacetyl)amino)cyclohexyl)amino)-8-((5-methyl-3-isoxazolyl)amino) imidazo[1,2-b]pyridazine-3-carboxamide], the half-inhibitory concentration (IC50) on recombinant CK2A1 worked out at 12.5 nM; with HCT116, 870 nM; on recombinant CK2A2 it was 0.8 nM.

Regarding `O=C(Nc1ccnc(Cl)c1)c1cnc2c(NC3CC3)cc(N[C@H]3CC[C@H](NC(=O)C4COCCN4)CC3)nn12` (stereo partly drawn) [Example 198, N-(2-chloro-4-pyridinyl)-8-(cyclopropylamino)-6-((trans-4-((3-morpholinylcarbonyl)amino)cyclohexyl)amino)imidazo [1,2-b]pyridazine-3-carboxamide], the IC50 on recombinant CK2A1 stood at 3.6 nM; in the test on HCT116, 90 nM; at recombinant CK2A2, 1.5 nM.

Turning to `O=C(Nc1ccncc1F)c1cnc2c(Nc3cccc(N[C@H]4CC[C@H](O)CC4)n3)cc(N[C@H]3CC[C@H](O)CC3)nn12` [Example 45, N-(3-fluoro-4-pyridinyl)-6-((trans-4-hydroxycyclohexyl)amino)-8-((6-((trans-4-hydroxycyclohexyl)amino)-2-pyridinyl)amino)imidazo[1,2-b]pyridazine-3-carboxamide], the values for the half-inhibitory concentration (IC50) on recombinant CK2A1, in the test on HCT116 and on recombinant CK2A2 were 34 nM, 140 nM and 8 nM, respectively.

As to `O=C(Nc1ccncc1F)c1cnc2c(NC3CC3)cc(NC3CCCC3)nn12` [Example 333, 6-(cyclopentylamino)-8-(cyclopropylamino)-N-(3-fluoro-4-pyridinyl)imidazo[1,2-b] pyridazine-3-carboxamide], the figures for the IC50 at recombinant CK2A1, in the test with HCT116 and on recombinant CK2A2 were 26 nM, 220 nM and 5 nM, respectively.

As to `NCCN[C@H]1CC[C@H](Nc2cc(NC3CC3)c3ncc(C(=O)Nc4ccnc(F)c4)n3n2)CC1` [Example 526, 6-((trans-4-((2-aminoethyl)amino)cyclohexyl)amino)-8-(cyclopropylamino)-N-(2-fluoro-4-pyridinyl)imidazo [1,2-b]pyridazine-3-carboxamide], the half-maximal inhibitory concentration (IC50) is 153 nM at recombinant CK2A1, over 2500 nM in the test with HCT116 and 61 nM at recombinant CK2A2.

For the compound `O=C(Nc1ccnc(Cl)c1)c1cnc2c(NC3CC3)cc(N[C@H]3CC[C@H](NCCO)CC3)nn12` [Example 531, N-(2-chloro-4-pyridinyl)-8-(cyclopropylamino)-6-((trans-4-((2-hydroxyethyl)amino)cyclohexyl)amino) imidazo[1,2-b]pyridazine-3-carboxamide], the IC50 stood at 28 nM on recombinant CK2A1, 260 nM with HCT116 and 3 nM at recombinant CK2A2.

In the case of `CN(C)CCOc1ccc(Nc2cc(N[C@H]3CC[C@H](N)CC3)nn3c(C(=O)Nc4ccncc4F)cnc23)cc1` [Example 501, 6-((trans-4-aminocyclohexyl)amino)-8-((4-(2-(dimethylamino)ethoxy)phenyl)amino)-N-(3-fluoro-4-pyridinyl)imidazo[1,2-b]pyridazine-3-carboxamide], the IC50 at recombinant CK2A1 turned out to be 234 nM; in the test with HCT116, 450 nM; at recombinant CK2A2, 87 nM.

In the case of `O=C(Nc1ccnc(F)c1)c1cnc2c(NC3CC3)cc(N[C@H]3CC[C@H](O)CC3)nn12` [Example 13, 8-(cyclopropylamino)-N-(2-fluoro-4-pyridinyl)-6-((trans-4-hydroxycyclohexyl)amino)imidazo[1,2-b]pyridazine-3-carboxamide], the IC50 on recombinant CK2A1 came out at 42 nM; in the test on HCT116, 170 nM; on recombinant CK2A2, 17 nM.

With `N[C@H]1CC[C@H](Nc2cc(Nc3ccc(CN4CCOCC4)cc3)c3ncc(C(=O)Nc4ccncc4)n3n2)CC1` [Example 414, 6-((trans-4-aminocyclohexyl)amino)-8-((4-(4-morpholinylmethyl)phenyl)amino)-N-4-pyridinylimidazo[1,2-b]pyridazine-3-carboxamide], the values for the IC50 at recombinant CK2A1, in the test with HCT116 and at recombinant CK2A2 were 115 nM, 540 nM and 47 nM, respectively.

With `Cc1cc(Nc2cc(N[C@H]3CC[C@H](O)CC3)nn3c(C(=O)Nc4ccnc(Cl)c4)cnc23)nn1C` [Example 553, N-(2-chloro-4-pyridinyl)-8-((1,5-dimethyl-1H-pyrazol-3-yl)amino)-6-((trans-4-hydroxycyclohexyl)amino)imidazo[1,2-b]pyridazine-3-carboxamide], the IC50 was found to be 19.6 nM on recombinant CK2A1, 40 nM in the test with HCT116 and 2.1 nM on recombinant CK2A2.

Take `N#CCC(=O)N[C@H]1CC[C@H](Nc2cc(Nc3nccs3)c3ncc(C(=O)Nc4ccnc(Cl)c4)n3n2)CC1` [Example 562, N-(2-chloro-4-pyridinyl)-6-((trans-4-((cyanoacetyl)amino)cyclohexyl)amino)-8-(1,3-thiazol-2-ylamino)imidazo [1,2-b]pyridazine-3-carboxamide]: the IC50 at recombinant CK2A1 was found to be 9.7 nM; with HCT116 it was 60 nM; at recombinant CK2A2 it was 1.2 nM.

As for `N[C@H](Cc1cscn1)C(=O)N[C@H]1CC[C@H](Nc2cc(NC3CC3)c3ncc(C(=O)Nc4ccnc(Cl)c4)n3n2)CC1` (relative stereo) [Example 179, N-(2-chloro-4-pyridinyl)-8-(cyclopropylamino)-6-((trans-4-((3-(1,3-thiazol-4-yl)-D-alanyl)amino)cyclohexyl)amino)imidazo[1,2-b]pyridazine-3-carboxamide], the IC50 at recombinant CK2A1 came to 13.8 nM; in the test on HCT116, 920 nM; on recombinant CK2A2 it was 0.7 nM.

`Nc1cc(N[C@H]2CC[C@H](N)CC2)nn2c(C(=O)Nc3ccncc3)cnc12` [Example 39, 8-amino-6-(4-aminocyclohexylamino)-N-(pyridin-4-yl)imidazo[1,2-b]pyridazine-3-carboxamide]: the 50% inhibitory concentration (IC50) at recombinant CK2A1 was 102 nM; with HCT116, 9950 nM; at recombinant CK2A2, 43 nM.

For `COCCNC(=O)N[C@H]1CC[C@H](Nc2cc(NC3CC3)c3ncc(C(=O)Nc4ccnc(Cl)c4)n3n2)CC1` [Example 276, N-(2-chloro-4-pyridinyl)-8-(cyclopropylamino)-6-((trans-4-(((2-methoxyethyl)carbamoyl)amino)cyclohexyl)amino)imidazo [1,2-b]pyridazine-3-carboxamide], the half-inhibitory concentration (IC50) at recombinant CK2A1 was 15.5 nM; with HCT116, 160 nM; on recombinant CK2A2, 1.1 nM.

In the case of `C[C@@H](N)C(=O)N[C@H]1CC[C@H](Nc2cc(Nc3ccccn3)c3ncc(C(=O)Nc4ccncc4F)n3n2)CC1` [Example 6, 6-((trans-4-(D-alanylamino)cyclohexyl)amino)-N-(3-fluoro-4-pyridinyl)-8-(2-pyridinylamino)imidazo[1,2-b]pyridazine-3-carboxamide], the figures for the IC50 at recombinant CK2A1, in the test with HCT116 and at recombinant CK2A2 were 11 nM, 90 nM and 3 nM, respectively.

`O=C(Nc1ccnc(Cl)c1)c1cnc2c(NC3CC3)cc(NC3CC[S+]([O-])CC3)nn12` (stereo not drawn) [Example 572, 4-((3-((2-chloro-4-pyridinyl)carbamoyl)-8-(cyclopropylamino)imidazo[1,2-b]pyridazin-6-yl)amino)tetrahydro-2H-thiopyranium-1-olate]: the IC50 at recombinant CK2A1 turned out to be 306 nM; in the test with HCT116, 800 nM; at recombinant CK2A2 it was 73 nM.

On to `CCN(C)C(=O)N[C@H]1CC[C@H](Nc2cc(NC3CC3)c3ncc(C(=O)Nc4ccnc(Cl)c4)n3n2)CC1` [Example 278, N-(2-chloro-4-pyridinyl)-8-(cyclopropylamino)-6-((trans-4-((ethyl(methyl)carbamoyl)amino)cyclohexyl)amino)imidazo[1,2-b]pyridazine-3-carboxamide], for which the half-inhibitory concentration (IC50) was found to be 62.6 nM on recombinant CK2A1, 500 nM in the test on HCT116 and 1.5 nM at recombinant CK2A2.

Turning to `CNC(C)(C)C(=O)N[C@H]1CC[C@H](Nc2cc(NC3CC3)c3ncc(C(=O)Nc4ccnc(Cl)c4)n3n2)CC1` [Example 159, N-(2-chloro-4-pyridinyl)-8-(cyclopropylamino)-6-((trans-4-((N,2-dimethylalanyl)amino)cyclohexyl)amino) imidazo[1,2-b]pyridazine-3-carboxamide], the half-maximal inhibitory concentration (IC50) on recombinant CK2A1 worked out at 34.1 nM; with HCT116, 280 nM; on recombinant CK2A2 it was 2.1 nM.

For the origin of these results see patent US8389527B2, “Substituted imidazopyridazines useful as kinase inhibitors” (Bristol-Myers Squibb Company, priority 2008, dated 2013).
